The values that follow come from ChEMBL document CHEMBL3507680, “University of Dundee, Gates Library screen for HepG2 cell viability”.

The nature of the data set: Human HepG2 cell viability assay in 384 well format. The arrangement: dose 125 nL, time 70.5 hour; concentration not given beside the values. The class given is toxicity, cell-based. The note with it: HepG2 cells, read-out: Inhibition.
On to `CC(NC(=O)N1CCC(c2ccccc2)CC1)c1nncn1C` (stereo not given), for which the cytotoxicity at 70.5 h was -3.28%.
The same measure for `CCOc1ncccc1CNC(=O)NCCNC(=O)c1ccco1`: -4.58%.
On to `Cc1cnn(CC2CN(CCc3cccs3)CCO2)c1` (stereo not given), for which the cytotoxicity at 70.5 h is -2.69%.
On to `COc1cc(C(=O)N2CCCS2(=O)=O)ccc1OC(C)C`, for which the cytotoxicity at 70.5 h is 21.8%.
Next, `O=C(Cc1csc(-c2ccco2)n1)N1CCCC1Cn1cccn1` (stereo not given): -7.55%.
Turning to `CN(Cc1cccs1)C(=O)CN1CCOC(Cn2cncn2)C1` (stereo not given), the cytotoxicity at 70.5 h was 17.4%.
As to `Cc1nc(C(=O)N2CCCC2c2noc(C)n2)c[nH]1` (stereo not given), the cytotoxicity at 70.5 h was -4.04%.
The same measure for `Cn1cnc2c1CCN(CCS(=O)(=O)c1ccc(Cl)cc1)C2`: -5.54%; for `Cc1cc(CN(C)C(=O)c2ccc(OC(C)C)nc2)no1`: 20%; for `Cn1c(CN2CCCC(c3noc(C4CC4)n3)C2)cc(=O)n(C)c1=O` (stereo not given): -11.3%.
The same measure for `Cc1cc(OCC(=O)N2CCCC2c2noc(C)n2)no1` (stereo not given): -13.8%; for `CC(C)c1cc(NC(=O)CN2CCCC2c2noc(C(C)C)n2)on1` (stereo not given): -12%; for `Cc1cccc(C(=O)NCCCN2CCc3ccccc3C2)c1C`: -7.53%.
In the case of `Cn1ncc(NCc2cccc(F)c2)c(Cl)c1=O`, the cytotoxicity at 70.5 h is -13.3%.
In the case of `CC(Cn1cccn1)NC(=O)NCCc1cccs1` (stereo not given), the cytotoxicity at 70.5 h was -6.38%.
The same measure for `Cc1ccccc1C(=O)NCCCN1CCc2ccccc2C1`: 19.4%; for `CNc1snc(C)c1C(=O)N1CCCC(n2cccn2)C1` (stereo not given): -15%; for `CNc1snc(C)c1C(=O)N1CCCC(n2ccnc2)C1` (stereo not given): -9.44%.
On to `Cc1cn2c(n1)CCC(NC(=O)c1cc[nH]n1)C2` (stereo not given), for which the cytotoxicity at 70.5 h was -4.85%.
In the case of `Cc1ccc(-c2noc(CN3CCc4nn(C)c(=O)cc4C3)n2)cc1`, the cytotoxicity at 70.5 h was -4.24%.
Next, `Cn1nc2c(cc1=O)CN(Cc1nc(-c3cccnc3)no1)CC2`: -3.78%.
Next, `CC(C)c1nc(C2CCCN2Cc2cc(=O)n(C)c(=O)n2C)no1` (stereo not given): -4.31%; `Cc1cc(NC(=O)CN2CCCC2c2noc(C(C)C)n2)no1` (stereo not given): 14.1%.
`Cc1cc(NC(=O)CN2CCCC2c2noc(C3CC3)n2)n(C)n1` (stereo not given): the cytotoxicity at 70.5 h is -10.4%.
For `COc1cccc(CN2CCCC(c3cc(C(N)=O)[nH]n3)C2)c1` (stereo not given), the cytotoxicity at 70.5 h was -12.6%.
Regarding `Cn1nc2c(cc1=O)CN(Cc1nc(-c3ccco3)no1)CC2`, the cytotoxicity at 70.5 h was -7.45%.
Regarding `CNc1snc(C)c1C(=O)N1CCCC(n2cc(C)cn2)C1` (stereo not given), the cytotoxicity at 70.5 h is -8.17%.
Next, `COc1c(C2CCCN2Cc2noc(C)n2)c(C)nn1C` (stereo not given): 44.7%; `CCN(CCC1CCN(C(=O)NCc2nncn2CC)CC1)CC1CC1`: 15.6%; `Cc1nn(C)c(N(C)C)c1CNCc1ccc(Cn2cncn2)cc1`: 22.4%.
Next, `CC(C)OCC(=O)N1CCCN(Cc2ccc(C#N)cc2)CC1`: 5.66%; `COCC(=O)NC(C)Cc1cccc(OC)c1` (stereo not given): 0.122%; `COc1c(CNC(c2ccc(F)cc2)C(C)(C)C)c(C)nn1C` (stereo not given): 3.66%.
For `CC(C)(C)n1cc(C(=O)N2CCCN(Cc3cccs3)CC2)cn1`, the cytotoxicity at 70.5 h was -2.48%.
As for `CCN(Cc1ccc2c(c1)OCO2)C(=O)CCc1c(C)nc(C)[nH]c1=O`, the cytotoxicity at 70.5 h is -4.97%.
The same measure for `Cc1nc2ccccc2c(=O)n1CCC(=O)N1CCNC(=O)C1`: -2.46%; for `Cc1nc(-c2ccsc2)ccc1C(=O)NCCN1CCOCC1`: 0.983%; for `COC(=O)c1cc(C(=O)N2CCCCCC2)n(-c2ccccc2)n1`: 11.6%.
The same measure for `O=C(Nc1cnn(CCN2CCOCC2)c1)c1ccccn1`: -4.34%; for `COC(=O)c1cc(C(=O)N2CCOCC2(C)C)n(-c2ccccc2)n1`: -0.593%.
